Results published in ChEMBL document CHEMBL1140752, “High confidence predictions of drug-drug interactions: predicting affinities for cytochrome P450 2C9 with multiple computational methods” (J Med Chem, 2008).

Target: Cytochrome P450 2C9 (Homo sapiens, UniProt P11712)
Assay: Inhibition of CYP2C9
Assay type: ADME

Cytochrome P450 2C9, sequence (P11712 whole entry): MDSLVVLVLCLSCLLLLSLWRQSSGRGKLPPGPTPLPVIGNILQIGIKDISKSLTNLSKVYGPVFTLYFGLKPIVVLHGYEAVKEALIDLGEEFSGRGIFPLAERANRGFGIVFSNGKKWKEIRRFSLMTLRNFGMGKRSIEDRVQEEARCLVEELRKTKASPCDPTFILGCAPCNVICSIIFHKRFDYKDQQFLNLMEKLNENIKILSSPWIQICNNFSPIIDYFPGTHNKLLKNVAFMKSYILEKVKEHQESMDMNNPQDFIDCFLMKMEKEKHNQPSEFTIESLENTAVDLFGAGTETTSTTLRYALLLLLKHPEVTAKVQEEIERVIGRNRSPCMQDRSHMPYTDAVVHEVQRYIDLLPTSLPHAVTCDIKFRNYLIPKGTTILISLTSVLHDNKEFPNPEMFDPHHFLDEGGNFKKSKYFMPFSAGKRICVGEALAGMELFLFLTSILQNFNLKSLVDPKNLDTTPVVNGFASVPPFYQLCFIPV

CCc1oc2ccccc2c(=O)c1C(=O)c1cc(Br)c(O)c(Br)c1
Ki: 101 nM
